From US20210186860A1, “Improved Delivery Systems for Moieties Including CBD Enhanced Combinations, Formulations and Chimeras” (LIFE TECH GLOBAL, LLC, priority 2017, published 2021) come the findings set out here.

The nature of the series: Transdermal flux / transdermal delivery from patch. The series is classed as in vitro ADME. Particulars: enhancer at 3% in PIB adhesive.

For the compound `CCCCCCCC/C=C\CCCCCCCC(=O)O` [oleic acid], the “transdermal delivery from PIB” value was “double”.
Then `CCCCCCCCCCCCN1CCCCCC1=O` [Azon], with “double”.
